In US11634396B2 (priority 2021, dated 2023):
Read-outs that look alike come from different tables or passages of the source.

Tests used:
[1] = biological target: kOR (OPRK1) (Homo sapiens (Human), UniProt P41145); assay: KOR β-Arrestin antagonist assay (Tango OPRK1-bla U2OS cells); format: cell-based
From the text: KOR β-Arrestin Agonist and Antagonist assays were preformed using the Tango™ OPRK1-bla U2OS cells from Invitrogen and purchased from ThermoFisher, catalog number K1576.

[2] = biological target: human dOR (Homo sapiens (Human), UniProt P41143); assay: cell-based; conditions: dOR cAMP Agonist Assay EC50, CHO Tag-lite human dOR stable cell line; forskolin
human dOR, sequence (P41143 whole entry): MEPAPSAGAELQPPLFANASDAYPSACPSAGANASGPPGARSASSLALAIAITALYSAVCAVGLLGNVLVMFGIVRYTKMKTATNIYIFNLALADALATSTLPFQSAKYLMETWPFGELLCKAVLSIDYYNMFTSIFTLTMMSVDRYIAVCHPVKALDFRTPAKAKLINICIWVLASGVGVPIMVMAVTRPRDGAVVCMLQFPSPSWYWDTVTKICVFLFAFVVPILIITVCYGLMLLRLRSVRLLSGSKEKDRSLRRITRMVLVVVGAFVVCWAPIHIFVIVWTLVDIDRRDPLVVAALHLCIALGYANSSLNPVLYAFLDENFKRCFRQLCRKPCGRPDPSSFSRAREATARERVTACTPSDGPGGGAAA

[3] = biological target: human mOR (Homo sapiens (Human), UniProt P35372); assay: cell-based
human mOR, sequence (P35372 whole entry): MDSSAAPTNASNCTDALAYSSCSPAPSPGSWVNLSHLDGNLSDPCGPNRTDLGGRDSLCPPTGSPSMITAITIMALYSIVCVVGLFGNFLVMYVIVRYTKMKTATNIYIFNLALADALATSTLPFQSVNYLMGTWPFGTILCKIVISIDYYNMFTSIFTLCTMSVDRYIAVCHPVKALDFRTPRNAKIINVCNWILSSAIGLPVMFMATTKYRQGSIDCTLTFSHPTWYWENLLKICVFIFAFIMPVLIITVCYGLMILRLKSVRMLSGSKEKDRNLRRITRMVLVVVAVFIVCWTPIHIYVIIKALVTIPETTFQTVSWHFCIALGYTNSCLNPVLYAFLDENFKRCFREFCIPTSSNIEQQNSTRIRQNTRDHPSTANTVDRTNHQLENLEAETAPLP

[4] = CHO Tag-lite human mOR stable cell line, forskolin 4 μM and DAMGO at EC90, read-out: mOR cAMP Antagonist Assay IC50

kOR (OPRK1), sequence (P41145 whole entry): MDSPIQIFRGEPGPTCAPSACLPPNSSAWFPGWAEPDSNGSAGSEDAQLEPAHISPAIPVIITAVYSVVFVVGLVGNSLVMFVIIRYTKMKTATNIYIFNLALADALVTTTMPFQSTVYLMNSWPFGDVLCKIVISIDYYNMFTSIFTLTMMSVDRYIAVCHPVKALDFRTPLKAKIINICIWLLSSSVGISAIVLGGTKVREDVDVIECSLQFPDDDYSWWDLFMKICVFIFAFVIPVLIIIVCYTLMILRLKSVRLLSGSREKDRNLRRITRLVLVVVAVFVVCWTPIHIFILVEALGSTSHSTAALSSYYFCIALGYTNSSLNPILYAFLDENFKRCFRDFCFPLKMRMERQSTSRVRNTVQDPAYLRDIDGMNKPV

Structure (SMILES)	IC50 [1] [nM]	EC50 [2] [µM]	IC50 [3] [nM]	IC50 [3, 4] [nM]
CN(C)[C@H](CNC(=O)C[C@H](c1ccccc1)C1(C(F)(F)F)CC1)Cc1ccc(C(N)=O)cc1Cl [Compound 39, 3-chloro-4-[(2S)-2-(dimethylamino)-3-[(3R)-3-phenyl-3-[1-(trifluoromethyl)cyclopropyl]propanamido]propyl]benzamide]	< 300	> 3	< 300	–
CN(C)[C@H](CNC(=O)C[C@H](c1ccccc1)C1(C(F)(F)F)CC1)Cc1ccc(C(N)=O)cc1 [Compound 89, 4-[(2S)-2-(dimethylamino)-3-[(3R)-3-phenyl-3-[1-(trifluoromethyl)cyclopropyl]propanamido]propyl]benzamide]	< 300	< 0.3	< 300	–
CNC(=O)c1ccc(C[C@@H](CNC(=O)C[C@H](c2ccccc2)C2(C(F)(F)F)CC2)N(C)C)c(C)c1 [Compound 143, 4-((S)-2-(dimethylamino)-3-((R)-3-phenyl-3-(1-(trifluoromethyl)cyclopropyl)propanamido)propyl)-N,3-dimethylbenzamide]	< 300	> 3	< 300	–
Cc1cc(C(N)=O)cc(C)c1C[C@@H](CNC(=O)C[C@@H](c1ccccc1)C(C)C)N(C)C [Compound 10, 4-((S)-2-(dimethylamino)-3-((R)-4-methyl-3-phenylpentanamido)propyl)-3,5-dimethylbenzamide]	< 300	> 3	< 300	–
CN(C)[C@H](CNC(=O)C[C@@H](c1cccnc1)C1(C(F)(F)F)CC1)Cc1ccc(C(N)=O)cc1Cl [Compound 41, 3-chloro-4-((S)-2-(dimethylamino)-3-((S)-3-(pyridin-3-yl)-3-(1-(trifluoromethyl)cyclopropyl)propanamido)propyl)benzamide]	< 300	–	< 300	–
Cc1cc(C(N)=O)cc(C)c1C[C@@H](CNC(=O)C1CC1c1ncccn1)N(C)C (stereo partly drawn) [Compound 6, 4-((2S)-2-(dimethylamino)-3-(2-(pyrimidin-2-yl)cyclopropane-1-carboxamido)propyl)-3,5-dimethylbenzamide]	300 to 3000	–	–	300 to 3000
Cc1ccc([C@H](CC(=O)NC[C@H](Cc2ccc(C(N)=O)c(F)c2Cl)N(C)C)C2(C(F)(F)F)CC2)cn1 [Compound 17, 3-chloro-4-[(2S)-2-(dimethylamino)-3-[(3S)-3-(6-methylpyridin-3-yl)-3-[1-(trifluoromethyl)cyclopropyl]propanamido]propyl]-2-fluorobenzamide]	< 300	–	–	> 3000
CN(C)[C@H](CNC(=O)CC(c1cncnc1)C1(C(F)(F)F)CC1)Cc1ccc(C(N)=O)c(F)c1 (stereo partly drawn) [Compound 72, 4-[(2S)-2-(dimethylamino)-3-[3-(pyrimidin-5-yl)-3-[1-(trifluoromethyl)cyclopropyl]propanamido]propyl]-2-fluorobenzamide]	< 300	–	–	< 300
CN(C)[C@H](CNC(=O)CC(c1cncc(F)c1)C1(C(F)(F)F)CC1)Cc1ccc(C(N)=O)c(F)c1 (stereo partly drawn) [Compound 76, 4-[(2S)-2-(dimethylamino)-3-[3-(5-fluoropyridin-3-yl)-3-[1-(trifluoromethyl)cyclopropyl]propanamido]propyl]-2-fluorobenzamide]	< 300	–	> 3000	–
COc1ccc(C(CC(=O)NC[C@H](Cc2cc(F)c(C(N)=O)c(F)c2)N(C)C)C2(C(F)(F)F)CC2)cn1 (stereo partly drawn) [Compound 49, 4-[(2S)-2-(dimethylamino)-3-[3-(6-methoxypyridin-3-yl)-3-[1-(trifluoromethyl)cyclopropyl]propanamido]propyl]-2,6-difluorobenzamide]	< 300	–	> 3000	–
CN(C)[C@H](CNC(=O)CC(c1cncc(F)c1)C1(C(F)(F)F)CC1)Cc1ccc(C(N)=O)cc1Cl (stereo partly drawn) [Compound 36, 3-chloro-4-[(2S)-2-(dimethylamino)-3-[3-(5-fluoropyridin-3-yl)-3-[1-(trifluoromethyl)cyclopropyl]propanamido]propyl]benzamide]	< 300	–	–	< 300
CN[C@H](CNC(=O)C[C@H](c1ccccc1)C1(C(F)(F)F)CC1)Cc1ccc(C(N)=O)cc1 [Compound 85, 4-[(2S)-2-(methylamino)-3-[(3R)-3-phenyl-3-[1-(trifluoromethyl)cyclopropyl]propanamido]propyl]benzamide]	< 300	–	< 300	–
CN(C)[C@H](CNC(=O)CC(c1ccc(Cl)cn1)C1(C(F)(F)F)CC1)Cc1ccc(C(N)=O)cc1Cl (stereo partly drawn) [Compound 37, 3-chloro-4-[(2S)-3-[3-(5-chloropyridin-2-yl)-3-[1-(trifluoromethyl)cyclopropyl]propanamido]-2-(dimethylamino)propyl]benzamide]	< 300	–	< 300	–
CN(C)[C@H](CNC(=O)CC(c1cccnc1)C1(C(F)(F)F)CC1)Cc1ccc(C(N)=O)cc1Cl (stereo partly drawn) [Compound 38, 3-chloro-4-[(2S)-2-(dimethylamino)-3-[3-(pyridin-3-yl)-3-[1-(trifluoromethyl)cyclopropyl]propanamido]propyl]benzamide]	< 300	–	< 300	–
COc1ncc(C(CC(=O)NC[C@H](Cc2ccc(C(N)=O)cc2Cl)N(C)C)C2(C(F)(F)F)CC2)cn1 (stereo partly drawn) [Compound 33, 3-chloro-4-[(2S)-2-(dimethylamino)-3-[3-(2-methoxypyrimidin-5-yl)-3-[1-(trifluoromethyl)hydropropyl]propanamido]propyl]benzamide]	< 300	–	< 300	–
CN(C)[C@H](CNC(=O)CC(c1cccnc1)C1(C(F)(F)F)CC1)Cc1ccc(C(N)=O)c(F)c1 (stereo partly drawn) [Compound 74, 4-[(2S)-2-(dimethylamino)-3-[3-(pyridin-3-yl)-3-[1-(trifluoromethyl)cyclopropyl]propanamido]propyl]-2-fluorobenzamide]	< 300	–	> 3000	–
CN(C)[C@H](CNC(=O)C[C@H](c1ccccn1)C1(C(F)(F)F)CC1)Cc1ccc(C(N)=O)cc1 [Compound 81, 4-((S)-2-(dimethylamino)-3-((S)-3-(pyridin-2-yl)-3-(1-(trifluoromethyl)cyclopropyl)propanamido)propyl)benzamide]	< 300	–	< 300	–
CN(C)[C@H](CNC(=O)C[C@H](c1cccnc1)C1(C(F)(F)F)CC1)Cc1ccc(O)cc1C(F)(F)F [Compound 255, (R)-N-((S)-2-(dimethylamino)-3-(4-hydroxy-2-(trifluoromethyl)phenyl)propyl)-3-(pyridin-3-yl)-3-(1-(trifluoromethyl)cyclopropyl) propanamide]	> 3000	–	< 300	–
CNC(=O)c1ccc(C[C@@H](CNC(=O)CC(c2ccccn2)C2(C(F)(F)F)CC2)N(C)C)c(C)c1 (stereo partly drawn) [Compound 141, 4-((2S)-2-(dimethylamino)-3-(3-(pyridin-2-yl)-3-(1-(trifluoromethyl)cyclopropyl)propanamido)propyl)-N,3-dimethylbenzamide]	< 300	–	< 300	–
Cc1ncc([C@@H](CC(=O)NC[C@H](Cc2ccc(C(N)=O)cc2Cl)N(C)C)C2CC2)cn1 [Compound 25, 3-chloro-4-[(2S)-3-[(3S)-3-cyclopropyl-3-(2-methylpyrimidin-5-yl)propanamido]-2-(dimethylamino)propyl]benzamide]	300 to 3000	–	< 300	–
CN(C)[C@H](CNC(=O)CC(c1ccc(C(F)(F)F)nc1)C1(C(F)(F)F)CC1)Cc1ccc(C(N)=O)cc1Cl (stereo partly drawn) [Compound 32, 3-chloro-4-[(2S)-2-(dimethylamino)-3-{3-[1-(trifluoromethyl)cyclopropyl]-3-[6-(trifluoromethyl)pyridin-3-yl]propanamido}propyl]benzamide]	< 300	–	–	< 300
CN(C)[C@H](CNC(=O)C[C@@H](c1ccccn1)C1(C(F)(F)F)CC1)Cc1ccc(C(N)=O)cc1 [Compound 84, 4-[(2S)-2-(dimethylamino)-3-[(3R)-3-(pyridin-2-yl)-3-[1-(trifluoromethyl)cyclopropyl]propanamido]propyl]benzamide]	< 300	–	< 300	–
Cc1ncc(C(CC(=O)NC[C@H](Cc2ccc(C(N)=O)cc2Cl)N(C)C)C2(C(F)(F)F)CC2)cn1 (stereo partly drawn) [Compound 34, 3-chloro-4-[(2S)-2-(dimethylamino)-3-[3-(2-methylpyrimidin-5-yl)-3-[1-(trifluoromethyl)cyclopropyl]propanamido]propyl]benzamide]	< 300	–	< 300	–
CN(C)[C@H](CNC(=O)C[C@H](c1cccnc1)C1(C(F)(F)F)CC1)Cc1ccc(C(N)=O)cc1Cl [Compound 28, 3-chloro-4-((S)-2-(dimethylamino)-3-((R)-3-(pyridin-3-yl)-3-(1-(trifluoromethyl)cyclopropyl)propanamido)propyl)benzamide]	< 300	–	< 300	–
Cc1ncc([C@@H](CC(=O)NC[C@H](Cc2ccc(C(N)=O)cc2Cl)N(C)C)C2(C(F)(F)F)CC2)cn1 [Compound 24, 3-chloro-4-[(2S)-2-(dimethylamino)-3-[(3R)-3-(2-methylpyrimidin-5-yl)-3-[1-(trifluoromethyl)cyclopropyl]propanamido]propyl]benzamide]	< 300	–	< 300	–
Cc1ccc([C@@H](CC(=O)NC[C@H](Cc2ccc(C(N)=O)c(F)c2)N(C)C)C2(C(F)(F)F)CC2)cn1 [Compound 75, 4-[(2S)-2-(dimethylamino)-3-[(3R)-3-(6-methylpyridin-3-yl)-3-[1-(trifluoromethyl)cyclopropyl]propanamido]propyl]-2-fluorobenzamide]	< 300	–	< 300	–
COc1ccc(C(CC(=O)NC[C@H](Cc2ccc(O)cc2C)N(C)C)C2(C(F)(F)F)CC2)cn1 (stereo partly drawn) [Compound 273, N-((S)-2-(dimethylamino)-3-(4-hydroxy-2-methylphenyl)propyl)-3-(6-methoxypyridin-3-yl)-3-(1-(trifluoromethyl)cyclopropyl) propanamide]	< 300	–	< 300	–
